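Step 1: Grow cells in 96-well plates. Step 2: Expose to compound for 48 hours at 5 concentrations. Step 3: Interpolate endpoints linearly; if unreached, use highest concentration. GI50: concentration for 50% inhibition of growth.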 The source made the active and inactive calls. Rule as the data show it: active = GI50 up to about 1.1 µM and inactive = higher.
Key:
Assay in all cases: inhibition of tumour cell growth, NCI panel, 48 h
HCT-15 = tested on: HCT-15
HOP-92 = tested on: HOP-92
BT-549 = tested on: BT-549
NCI-H522 = tested on: NCI-H522
KM12 = tested on: KM12
SW-620 = tested on: SW-620
SK-MEL-2 = tested on: SK-MEL-2
UACC-62 = tested on: UACC-62
IGROV-1 = tested on: IGROV-1
COLO 205 = tested on: COLO 205
SK-OV-3 = tested on: SK-OV-3
ACHN = tested on: ACHN
MCF7 = tested on: MCF7
PC-3 = tested on: PC-3
OVCAR-3 = tested on: OVCAR-3
MDA-MB-231 = tested on: MDA-MB-231
MOLT-4 = tested on: MOLT-4
UACC-257 = tested on: UACC-257
Hs-578T = tested on: Hs-578T
OVCAR-4 = tested on: OVCAR-4
SK-MEL-28 = tested on: SK-MEL-28
HCT-116 = tested on: HCT-116
EKVX = tested on: EKVX
HCC 2998 = tested on: HCC 2998
SK-MEL-5 = tested on: SK-MEL-5
OVCAR-5 = tested on: OVCAR-5
A549 = tested on: A549
CAKI-1 = tested on: CAKI-1
NCI-H226 = tested on: NCI-H226
SNB-75 = tested on: SNB-75
NCI-H23 = tested on: NCI-H23
DU-145 = tested on: DU-145
U-251 = tested on: U-251
SR = tested on: SR
SN12C = tested on: SN12C
HOP-62 = tested on: HOP-62
K562 = tested on: K562
NCI/ADR-RES = tested on: NCI/ADR-RES
SNB-19 = tested on: SNB-19
MDA-N = tested on: MDA-N
HL-60 = tested on: HL-60
OVCAR-8 = tested on: OVCAR-8
RXF 393 = tested on: RXF 393
HT-29 = tested on: HT-29
SF-295 = tested on: SF-295
NCI-H460 = tested on: NCI-H460
MDA-MB-435 = tested on: MDA-MB-435
M14 = tested on: M14
A498 = tested on: A498
SF-539 = tested on: SF-539
786-0 = tested on: 786-0
T47D = tested on: T47D
RPMI-8226 = tested on: RPMI-8226
Malme-3M = tested on: Malme-3M
UO-31 = tested on: UO-31
LOX IMVI = tested on: LOX IMVI
SF-268 = tested on: SF-268
TK-10 = tested on: TK-10
CCRF-CEM = tested on: CCRF-CEM

SMILES: c1ccc(-c2cc(-c3cc(-c4ccccn4)[nH]n3)n[nH]2)nc1
- GI50 (HCT-15): 55.7 µM
- GI50 (HOP-92): 77.8 µM (inactive)
- GI50 (BT-549): > 100 µM (inactive)
- GI50 (NCI-H522): > 100 µM (inactive)
- GI50 (KM12): > 100 µM (inactive)
- GI50 (SW-620): > 100 µM (inactive)
- GI50 (SK-MEL-2): > 100 µM (inactive)
- GI50 (UACC-62): > 100 µM (inactive)
- GI50 (IGROV-1): > 100 µM (inactive)
- GI50 (COLO 205): > 100 µM (inactive)
- GI50 (SK-OV-3): > 100 µM (inactive)
- GI50 (ACHN): > 100 µM (inactive)
- GI50 (MCF7): > 100 µM (inactive)
- GI50 (PC-3): > 100 µM (inactive)
- GI50 (OVCAR-3): 74.1 µM (inactive)
- GI50 (MDA-MB-231): > 100 µM (inactive)
- GI50 (MOLT-4): 33.3 µM (inactive)
- GI50 (UACC-257): > 100 µM (inactive)
- GI50 (Hs-578T): > 100 µM (inactive)
- GI50 (OVCAR-4): > 100 µM (inactive)
- GI50 (SK-MEL-28): > 100 µM (inactive)
- GI50 (HCT-116): 27.7 µM (inactive)
- GI50 (EKVX): 25.4 µM (inactive)
- GI50 (HCC 2998): 28.6 µM (inactive)
- GI50 (SK-MEL-5): > 100 µM (inactive)
- GI50 (OVCAR-5): > 100 µM (inactive)
- GI50 (A549): 75.2 µM (inactive)
- GI50 (CAKI-1): > 100 µM (inactive)
- GI50 (NCI-H226): > 100 µM (inactive)
- GI50 (SNB-75): 69.8 µM (inactive)
- GI50 (NCI-H23): 95.5 µM (inactive)
- GI50 (DU-145): 95.7 µM (inactive)
- GI50 (U-251): > 100 µM (inactive)
- GI50 (SR): 17.6 µM (inactive)
- GI50 (SN12C): 27.6 µM (inactive)
- GI50 (HOP-62): 92.9 µM (inactive)
- GI50 (K562): 8.45 µM (inactive)
- GI50 (NCI/ADR-RES): 44.5 µM (inactive)
- GI50 (SNB-19): > 100 µM (inactive)
- GI50 (MDA-N): 77.3 µM (inactive)
- GI50 (HL-60): 84.3 µM (inactive)
- GI50 (OVCAR-8): > 100 µM (inactive)
- GI50 (RXF 393): > 100 µM (inactive)
- GI50 (HT-29): 38.8 µM (inactive)
- GI50 (SF-295): 85.5 µM (inactive)
- GI50 (NCI-H460): 35.6 µM (inactive)
- GI50 (MDA-MB-435): > 100 µM (inactive)
- GI50 (M14): 30.8 µM (inactive)
- GI50 (A498): > 100 µM (inactive)
- GI50 (SF-539): > 100 µM (inactive)
- GI50 (786-0): 41.9 µM (inactive)
- GI50 (T47D): 80.4 µM (inactive)
- GI50 (RPMI-8226): 70.6 µM (inactive)
- GI50 (Malme-3M): > 100 µM (inactive)
- GI50 (UO-31): 22.6 µM (inactive)
- GI50 (LOX IMVI): 94.4 µM (inactive)
- GI50 (SF-268): > 100 µM (inactive)

SMILES: c1ccc(-c2c(-c3cccs3)[nH]c(-c3cccs3)c2-c2ccccn2)nc1
- GI50 (HCT-15): 15.1 µM
- GI50 (HOP-92): 25.8 µM (inactive)
- GI50 (BT-549): 22.2 µM (inactive)
- GI50 (KM12): 23.1 µM (inactive)
- GI50 (SW-620): 13 µM (inactive)
- GI50 (UACC-62): 18 µM (inactive)
- GI50 (IGROV-1): 22.5 µM (inactive)
- GI50 (COLO 205): 15 µM (inactive)
- GI50 (SK-OV-3): 21.9 µM (inactive)
- GI50 (ACHN): 30.5 µM (inactive)
- GI50 (MCF7): > 10 µM (inactive)
- GI50 (PC-3): 10.6 µM (inactive)
- GI50 (OVCAR-3): 24 µM (inactive)
- GI50 (MDA-MB-231): 20.3 µM (inactive)
- GI50 (MOLT-4): 11.7 µM (inactive)
- GI50 (UACC-257): 22 µM (inactive)
- GI50 (TK-10): 40.2 µM (inactive)
- GI50 (Hs-578T): 33.4 µM (inactive)
- GI50 (HCT-116): 0.127 µM (active)
- GI50 (EKVX): 22.9 µM (inactive)
- GI50 (HCC 2998): 20.2 µM (inactive)
- GI50 (SK-MEL-5): 13.7 µM (inactive)
- GI50 (OVCAR-5): 30.5 µM (inactive)
- GI50 (A549): 18.1 µM (inactive)
- GI50 (CAKI-1): 37.4 µM (inactive)
- GI50 (CCRF-CEM): 8.24 µM (inactive)
- GI50 (NCI-H226): 23 µM (inactive)
- GI50 (SNB-75): 17.6 µM (inactive)
- GI50 (NCI-H23): 26.2 µM (inactive)
- GI50 (DU-145): 0.27 µM (active)
- GI50 (U-251): 20.2 µM (inactive)
- GI50 (SR): 26.2 µM (inactive)
- GI50 (SN12C): 21.1 µM (inactive)
- GI50 (K562): 11.7 µM (inactive)
- GI50 (NCI/ADR-RES): 17.2 µM (inactive)
- GI50 (SNB-19): 33.5 µM (inactive)
- GI50 (MDA-N): 0.199 µM (active)
- GI50 (HL-60): 26.5 µM (inactive)
- GI50 (OVCAR-8): 26.4 µM (inactive)
- GI50 (RXF 393): 20.5 µM (inactive)
- GI50 (HT-29): 14.2 µM (inactive)
- GI50 (SF-295): 20.2 µM (inactive)
- GI50 (NCI-H460): 21.3 µM (inactive)
- GI50 (MDA-MB-435): 15.7 µM (inactive)
- GI50 (M14): 20.2 µM (inactive)
- GI50 (A498): 27.5 µM (inactive)
- GI50 (SF-539): 20.4 µM (inactive)
- GI50 (786-0): 22.6 µM (inactive)
- GI50 (T47D): 18.2 µM (inactive)
- GI50 (RPMI-8226): 20 µM (inactive)
- GI50 (Malme-3M): 25.5 µM (inactive)
- GI50 (UO-31): 19.2 µM (inactive)
- GI50 (LOX IMVI): 12.4 µM (inactive)
- GI50 (SF-268): 19.7 µM (inactive)

SMILES: O=C(N[C@@H](Cc1ccccc1)B(O)O)[C@H](Cc1cccc2ccccc12)NC(=O)N1CCOCC1
- GI50 (HCT-15): 0.155 µM
- GI50 (HOP-92): 0.00233 µM (active)
- GI50 (BT-549): 0.000468 µM (active)
- GI50 (NCI-H522): < 0.01 µM (active)
- GI50 (KM12): 0.00185 µM (active)
- GI50 (SW-620): 0.00258 µM (active)
- GI50 (SK-MEL-2): 0.00125 µM (active)
- GI50 (UACC-62): 0.00248 µM (active)
- GI50 (IGROV-1): 0.00618 µM (active)
- GI50 (COLO 205): 0.00552 µM (active)
- GI50 (ACHN): 0.0105 µM (active)
- GI50 (MCF7): 0.000476 µM (active)
- GI50 (PC-3): 0.00569 µM (active)
- GI50 (OVCAR-3): 0.000891 µM (active)
- GI50 (MDA-MB-231): 0.00267 µM (active)
- GI50 (MOLT-4): 0.000371 µM (active)
- GI50 (UACC-257): 0.00219 µM (active)
- GI50 (TK-10): 0.00566 µM (active)
- GI50 (Hs-578T): 0.00175 µM (active)
- GI50 (OVCAR-4): 0.00454 µM (active)
- GI50 (SK-MEL-28): 0.00106 µM (active)
- GI50 (HCT-116): 0.000412 µM (active)
- GI50 (EKVX): 0.0267 µM (active)
- GI50 (HCC 2998): 0.00182 µM (active)
- GI50 (SK-MEL-5): 0.00154 µM (active)
- GI50 (OVCAR-5): 0.00281 µM (active)
- GI50 (A549): 0.0262 µM (active)
- GI50 (CAKI-1): 0.00555 µM (active)
- GI50 (CCRF-CEM): 0.000186 µM (active)
- GI50 (NCI-H226): 0.00029 µM (active)
- GI50 (SNB-75): < 0.01 µM (active)
- GI50 (NCI-H23): 0.00172 µM (active)
- GI50 (DU-145): 0.00627 µM (active)
- GI50 (U-251): 0.00423 µM (active)
- GI50 (SR): 0.00131 µM (active)
- GI50 (SN12C): 0.00371 µM (active)
- GI50 (HOP-62): 0.00524 µM (active)
- GI50 (K562): 0.00371 µM (active)
- GI50 (NCI/ADR-RES): 0.938 µM (active)
- GI50 (SNB-19): 0.00708 µM (active)
- GI50 (MDA-N): < 0.01 µM (active)
- GI50 (HL-60): < 0.01 µM (active)
- GI50 (OVCAR-8): 0.0254 µM (active)
- GI50 (RXF 393): 0.00167 µM (active)
- GI50 (HT-29): 0.00239 µM (active)
- GI50 (SF-295): 0.00478 µM (active)
- GI50 (NCI-H460): 0.0215 µM (active)
- GI50 (MDA-MB-435): 0.000298 µM (active)
- GI50 (M14): 0.00168 µM (active)
- GI50 (A498): 0.00261 µM (active)
- GI50 (SF-539): 0.000265 µM (active)
- GI50 (786-0): 0.00451 µM (active)
- GI50 (T47D): 0.00104 µM (active)
- GI50 (RPMI-8226): 0.000412 µM (active)
- GI50 (Malme-3M): 0.00187 µM (active)
- GI50 (UO-31): 0.232 µM (active)
- GI50 (LOX IMVI): 0.00124 µM (active)
- GI50 (SF-268): 0.00161 µM (active)

Reference: ChEMBL document CHEMBL1201862, “PubChem BioAssay data set” (2004)
